Assays:
[1] = DPPH radical-scavenging ability; format: biochemical
Description: DPPH [[…]] is a free-radical compound. […] Accordingly, antioxidant activity can be compared from the ratio of decolorized DPPH radicals. After mixing 50 μL of a 0.36 mM DPPH solution and 50 μL of a test substance dissolved in ethanol at 1:1 and conducting reaction at room temperature in the dark for 30 minutes, absorbance was measured at 540 nm. The DPPH radical-scavenging ability of Example 1, Comparative Example 1 and Comparative Example 2 of different darae species at different concentrations was calculated from the measured absorbance.

[2] = ABTS radical-scavenging ability; format: biochemical
Description: After dissolving 7.4 mM 2,2-azino-bis(3-ethylbenzthiazoline-6-sulfonic acid) and 2.6 mM potassium persulfate respectively in distilled water and mixing at 1:1, ABTS^+ is formed by conducting reaction at room temperature in the dark for 24 hours. 24 hours later, the ABTS solution was diluted to purified water to adjust absorbance at 732 nm to 0.7. Then, after adding 10 μL of a test substance to 190 μL of the ABTS solution and conducting reaction in the dark for 10 minutes, absorbance was measured at 732 nm. The ABTS radical-scavenging ability of Example 1, Comparative Example 1 and Comparative Example 2 of different darae species at different concentrations was calculated from the measured absorbance.

## O=C1O[C@H]([C@@H](O)CO)C(O)=C1O [L-Ascorbic acid]
[1]
  DPPH radical-scavenging ability IC50: 30 ± 10 µg/mL

## Cc1c(C)c2c(c(C)c1O)CCC(C)(C(=O)O)O2 (centres unmarked) [Trolox]
[2]
  ABTS radical-scavenging ability IC50: 100 ± 10 µg/mL
